Legend:
ΔF508 CFTR [1] = molecular target: T1, ΔF508 CFTR (Homo sapiens, UniProt P13569, DEL508-508); test: HS-YFP assay, CFTR potentiator activity in CFBE41o− cells; type: cell-based; settings: 10 minutes exposure, following CFTR correction by VRT809 (5 μM, 24 h)
T1 construct: cells expressing endogenous ΔF508-CFTR; endogenous in cells; host or cells: CFBE41o− human CF bronchial epithelial cell line (gift from D. C. Gruenert), homozygous ΔF508
From the text: (§1) The CF human bronchial epithelial cell line (CFBE41o−), homozygous for the ΔF508 mutation of the CFTR protein (Ehrhard et al., 2006, Cell Tissue Res. Vol. 323, p. 405-415; kind gift from D. C. Gruenert, California Pacific Medical Center Research Institute, San Francisco, Calif., USA) and the human bronchial epithelial cell line 16HBE14o−, wildtype (wt) for the CFTR protein (kindly provided by P. Davis, Case Western Reserve University School of Medicine, Cleveland, Ohio, USA) were maintained in EMEM (Lonza) supplemented with 10% FBS and 1% Glutamax (Sigma). […]
(§2) The CFTR activity in epithelial cells was evaluated by Yellow Fluorescence Protein (YFP) with a protocol modified from the method published by Averna et al. (PLoS One, 2013, vol. 8, e66089). […]
The potential effect of different agents on the activity of CFTR in CFBE41o− cells was analysed by the HS-YFP assay, combining a short exposure (10 minutes) with agents as follows: CHF6001, Roflumilast or VRT 770 (5 μM), alone or in combination, with a 24 h pre-treatment with the CFTR corrector VRT809 (5 μM). […]

ΔF508 CFTR [2] = molecular target: T1, ΔF508 CFTR; test: HS-YFP assay, CFTR corrector activity in CFBE41o− cells; type: cell-based; settings: 24 h exposure, VRT809 5 μM
From the text: as §1, §2
The potential corrector activity of roflumilast and a compound of general formula (I) (CHF6001) was evaluated in comparison with the known CFTR corrector VRT809 in the human bronchial epithelial cell line CFBE41o− (homozygous for the ΔF508 mutation of the CFTR protein) by the HS-YFP assay (FIG. 3). […]
FIG. 3. CFTR corrector activity was evaluated in CFBE41o− epithelial cell line after 24 h exposure to CFTR corrector VRT809 (5 μM), CHF6001, and Roflumilast at the indicated doses.
Values are normalized for total cell content and expressed as means±SEM (n=4) *p≤0.05 t-test (vs DMSO)

CFTR = test: Immunofluorescence staining of CFTR in CFBE41o− cells; type: cell-based, human; settings: CFBE41o− cells treated for 24 h, different concentrations
Description: CFBE41o− and 16HBE14o− cells, respectively, were seeded on a glass slide and, after exposure to agent or vehicle, were washed twice with PBS 1× and fixed with paraformaldehyde 4% (PFA) for 30 min and stored in PBS 1× at 4° C. until immunostaining. The fixed cells were washed twice with PBS 1×, and treated for 3 minutes with […] NH4Cl at room temperature in order to quench the aldehyde group. After another washing step, the cells were permeabilized with TRITON X100 0.1% for 5 minutes and were blocked with a solution of 1% BSA for 30 minutes. The anti-CFTR antibody M3A7, raised against an epitope corresponding to residues 1197-1480 of human CFTR (Santa Cruz) was added at 1:100 dilution for 1 hour, then the cells were stained with secondary antibody anti IgG1 488 (1:1000, Santa Cruz) and Rhodamine Phalloidine (1:500) for another hour. Finally, the cells were subjected to DAPI (Sigma Aldrich) staining (1:2000) for 1 hour at RT, then the slides were analyzed by Leica DM6000M microscope with a 40× objective. Images were processed for brightness and contrast with Adobe Photoshop.
FIG. 6: Immunofluorescence staining performed on CFBE41o− cells treated for 24 h with VX809+VX770, CHF6001 and Roflumilast at different concentrations or vehicle (DMSO).

[3] = healthy volunteers, daily doses of up to 4800 μg (4.8 mg) for 14 days; cited from earlier work
[4] = diarrhea, weight loss, nausea, headache, insomnia and others; cited from earlier work

T1 sequence (P13569 with tags, fused parts or gaps DEL508-508): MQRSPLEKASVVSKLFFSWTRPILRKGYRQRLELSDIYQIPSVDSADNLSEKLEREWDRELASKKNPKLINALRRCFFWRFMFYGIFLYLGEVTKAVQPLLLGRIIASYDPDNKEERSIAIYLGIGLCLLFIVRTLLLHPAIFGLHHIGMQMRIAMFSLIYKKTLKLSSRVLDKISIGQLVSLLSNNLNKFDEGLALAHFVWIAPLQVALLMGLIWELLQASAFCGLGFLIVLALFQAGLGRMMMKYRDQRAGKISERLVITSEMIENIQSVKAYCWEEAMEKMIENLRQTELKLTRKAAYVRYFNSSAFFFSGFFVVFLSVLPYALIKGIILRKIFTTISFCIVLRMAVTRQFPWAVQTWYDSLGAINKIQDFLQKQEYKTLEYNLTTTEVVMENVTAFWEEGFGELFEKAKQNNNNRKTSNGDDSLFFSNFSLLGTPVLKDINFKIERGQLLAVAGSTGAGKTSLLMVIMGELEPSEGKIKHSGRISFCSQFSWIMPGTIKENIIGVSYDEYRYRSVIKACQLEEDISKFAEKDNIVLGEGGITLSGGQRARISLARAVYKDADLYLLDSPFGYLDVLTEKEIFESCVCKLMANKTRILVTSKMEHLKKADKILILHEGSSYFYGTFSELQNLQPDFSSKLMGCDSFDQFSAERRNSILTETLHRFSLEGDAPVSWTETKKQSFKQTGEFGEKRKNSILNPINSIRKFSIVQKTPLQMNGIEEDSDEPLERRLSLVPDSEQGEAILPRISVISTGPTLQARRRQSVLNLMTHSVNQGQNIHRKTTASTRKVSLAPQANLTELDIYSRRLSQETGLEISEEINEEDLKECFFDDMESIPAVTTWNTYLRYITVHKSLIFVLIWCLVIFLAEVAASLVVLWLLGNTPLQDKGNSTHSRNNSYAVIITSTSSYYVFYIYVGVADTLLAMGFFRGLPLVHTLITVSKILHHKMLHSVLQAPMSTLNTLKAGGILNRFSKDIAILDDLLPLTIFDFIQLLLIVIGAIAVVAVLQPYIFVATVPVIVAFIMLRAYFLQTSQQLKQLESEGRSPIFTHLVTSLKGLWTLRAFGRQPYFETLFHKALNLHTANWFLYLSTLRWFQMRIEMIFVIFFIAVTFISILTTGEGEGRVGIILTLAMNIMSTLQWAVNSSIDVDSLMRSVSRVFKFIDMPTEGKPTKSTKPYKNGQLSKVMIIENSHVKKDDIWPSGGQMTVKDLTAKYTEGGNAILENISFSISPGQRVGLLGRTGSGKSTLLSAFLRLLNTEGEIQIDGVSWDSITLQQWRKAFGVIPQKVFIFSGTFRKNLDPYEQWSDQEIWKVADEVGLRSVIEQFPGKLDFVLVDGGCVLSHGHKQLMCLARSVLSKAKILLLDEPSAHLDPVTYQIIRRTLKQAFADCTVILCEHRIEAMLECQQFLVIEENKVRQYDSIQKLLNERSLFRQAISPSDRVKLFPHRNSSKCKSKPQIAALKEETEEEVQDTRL

Structure (SMILES)	CFTR activity (delta fluorescence un-stimulated versus stimulated cells) (ΔF508 CFTR [1])	CFTR activity (corrector activity) compared with VRT809 (ΔF508 CFTR [2])	presence of CFTR by immunofluorescence (CFTR)	safety and tolerability [3]	frequency of common adverse effects in subjects [4]
CS(=O)(=O)Nc1ccc(C(=O)OC(Cc2c(Cl)c[n+]([O-])cc2Cl)c2ccc(OC(F)F)c(OCC3CC3)c2)cc1OCC1CC1 (stereo not shown) [CHF6001, 3-Cyclopropylmethoxy-4-methanesulfonylamino-benzoic acid 1-(3-cyclopropylmethoxy-4-difluoromethoxy-phenyl)-2-(3,5-dichloro-1-oxy-pyridin-4-yl)-ethyl ester]	comparable to the reference compound VRT 770	equal or superior to VRT809	increase the presence of CFTR	Good safety and tolerability	
O=C(Nc1c(Cl)cncc1Cl)c1ccc(OC(F)F)c(OCC2CC2)c1 [Roflumilast, 3-cyclo-propylmethoxy-4-difluoromethoxy-N-[3,5-di-chloropyrid-4-yl]-benzamide]		equal or superior to VRT809	increase the presence of CFTR		1-10%

Source: patent US20220218678A1, “USE OF 1-PHENYL-2-PYRIDINYL ALKYL ALCOHOL DERIVATIVES FOR TREATING CYSTIC FIBROSIS” (CHIESI FARMACEUTICI S.p.A., priority 2017, published 2022)
